# Results taken from patent US20080009418A1, “Selective Inhibitors” (Alchemia LTD., priority 2004, published 2008).
# Key:
# Conditions in all cases: compound at 10 μM
# [1] = target: T1, Human δ-opioid (DOP) (Homo sapiens, UniProt P41143); test: Radioligand binding, human δ-opioid (DOP) membranes, FlashPlate, [3H]-Bremazocine
# T1 construct: purchased Perkin Elmer Biosignal
# Procedure, shortened: (§1)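 Cloned human receptor membranes were coated onto FlashPlate wells and incubated with radioligand and compound (added from a 0.5 mM DMSO daughter plate) for 1 hour at room temperature in the dark. Scintillation counting gave percent inhibition, with DMSO defining total and reference ligand defining non-specific binding.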
# [2] = target: T2, Human μ-opioid (MOP) (Homo sapiens, UniProt P35372); test: Radioligand binding, human μ-opioid (MOP) membranes, FlashPlate, [3H]-Naloxone
# T2 construct: purchased Perkin Elmer Biosignal
# Procedure, shortened: as §1
# [3] = target: T3, Human κ-Opioid (KOP) (Homo sapiens, UniProt P41145); test: Radioligand binding, human κ-opioid (KOP) membranes, filtration, [3H]-Diprenorphine
# T3 construct: purchased Perkin Elmer Biosignal
# Procedure, shortened: (§2)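 Percent inhibition of radioligand binding measured on recombinant human membranes: NK1 with [125I]-Substance P, KOP with [3H]-Diprenorphine. Incubation 1 h at room temperature, then harvest onto 0.3% PEI-soaked filters, cold Tris-HCl pH 7.4 washes and scintillation counting; non-specific binding from reference ligand wells.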
# [4] = target: T4, Human Melanocortin (MC4) (Homo sapiens, UniProt P32245); test: Radioligand binding, human melanocortin MC4 membranes, FlashPlate, [125I]-NDP-αMSH
# T4 construct: purchased Perkin Elmer Biosignal
# Procedure, shortened: as §1
# [5] = target: T5, Human Melanocortin (MC3) (Homo sapiens, UniProt P41968); test: Radioligand binding, human melanocortin MC3 membranes, FlashPlate, [125I]-NDP-αMSH
# T5 construct: purchased Perkin Elmer Biosignal
# Procedure, shortened: as §1
# [6] = target: T6, Human opioid (ORL1) (Homo sapiens, UniProt P41146); test: Radioligand binding, human opioid ORL1 membranes, FlashPlate, [125I]-Nociceptin
# T6 construct: purchased Perkin Elmer Biosignal
# Procedure, shortened: as §1
# [7] = target: T7, Human neurokinin (NK1) (Homo sapiens, UniProt P25103); test: Radioligand binding, human neurokinin NK1 membranes, filtration, [125I]-Substance P
# T7 construct: purchased Perkin Elmer Biosignal
# Procedure, shortened: as §2
# [8] = target: T8, Human melanocortin (MC5) (Homo sapiens, UniProt P33032); test: Radioligand binding, human melanocortin MC5 membranes, FlashPlate, [125I]-NDP-αMSH
# T8 construct: purchased Perkin Elmer Biosignal
# Procedure, shortened: as §1
# [9] = target: T9, Human neuropeptide Y (NPY-Y1) (Homo sapiens, UniProt P25929); test: Radioligand binding, human neuropeptide Y NPY-Y1 membranes, FlashPlate, [125I]-PYY
# T9 construct: purchased Perkin Elmer Biosignal
# T9 sequence (P25929 1-384): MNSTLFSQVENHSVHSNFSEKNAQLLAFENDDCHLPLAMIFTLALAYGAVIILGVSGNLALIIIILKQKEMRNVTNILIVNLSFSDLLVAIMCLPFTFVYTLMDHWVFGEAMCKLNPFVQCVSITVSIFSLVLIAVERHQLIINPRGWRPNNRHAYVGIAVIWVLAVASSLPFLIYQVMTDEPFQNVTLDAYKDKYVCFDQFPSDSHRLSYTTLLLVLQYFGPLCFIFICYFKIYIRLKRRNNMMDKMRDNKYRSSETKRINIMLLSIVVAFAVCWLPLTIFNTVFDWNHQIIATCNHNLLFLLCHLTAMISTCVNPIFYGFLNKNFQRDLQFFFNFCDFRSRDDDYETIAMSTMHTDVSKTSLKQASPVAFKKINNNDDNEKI
# Procedure, shortened: as §1
# [10] = target: T10, Human melanin-concentrating hormone (MCH1) (Homo sapiens, UniProt Q99705); test: Radioligand binding, human melanin-concentrating hormone MCH1 membranes, FlashPlate, [125I]-S36057
# T10 construct: purchased Perkin Elmer Biosignal
# Procedure, shortened: as §1
# [11] = target: T11, Mouse urotensin (mUR2) (Mus musculus, UniProt Q8VIH9); test: Radioligand binding, mouse urotensin mUR2 membranes, FlashPlate, [125I]-Urotensin II
# T11 construct: purchased Perkin Elmer Biosignal
# T11 sequence (Q8VIH9 1-385): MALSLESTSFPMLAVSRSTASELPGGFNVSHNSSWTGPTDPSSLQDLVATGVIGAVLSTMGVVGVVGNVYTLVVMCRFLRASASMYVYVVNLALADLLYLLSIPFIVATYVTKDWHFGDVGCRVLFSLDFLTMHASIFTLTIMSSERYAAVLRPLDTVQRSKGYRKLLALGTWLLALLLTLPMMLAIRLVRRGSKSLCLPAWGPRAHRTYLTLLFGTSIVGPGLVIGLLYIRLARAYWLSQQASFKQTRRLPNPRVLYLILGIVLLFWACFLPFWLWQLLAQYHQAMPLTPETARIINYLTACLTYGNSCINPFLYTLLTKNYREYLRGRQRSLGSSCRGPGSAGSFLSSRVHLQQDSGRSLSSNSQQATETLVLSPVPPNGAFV
# Procedure, shortened: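 Cloned mouse urotensin (mUR2) receptor membranes from Perkin Elmer Biosignal were immobilized in FlashPlate microplates using a proprietary coating. Each well got 19.5 μl buffer, then 0.5 μl of DMSO, reference ligand, or compound. Adding 5 μl of [125I]-Urotensin II, diluted to 5× final concentration in binding buffer, started binding. Plates were sealed with TopSeal-A and incubated 1 hour at room temperature in the dark. Wells were counted for 30 seconds each on a TopCount after a 60-second delay, and percentage inhibition was calculated.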
# T3 sequence (P41145 whole entry): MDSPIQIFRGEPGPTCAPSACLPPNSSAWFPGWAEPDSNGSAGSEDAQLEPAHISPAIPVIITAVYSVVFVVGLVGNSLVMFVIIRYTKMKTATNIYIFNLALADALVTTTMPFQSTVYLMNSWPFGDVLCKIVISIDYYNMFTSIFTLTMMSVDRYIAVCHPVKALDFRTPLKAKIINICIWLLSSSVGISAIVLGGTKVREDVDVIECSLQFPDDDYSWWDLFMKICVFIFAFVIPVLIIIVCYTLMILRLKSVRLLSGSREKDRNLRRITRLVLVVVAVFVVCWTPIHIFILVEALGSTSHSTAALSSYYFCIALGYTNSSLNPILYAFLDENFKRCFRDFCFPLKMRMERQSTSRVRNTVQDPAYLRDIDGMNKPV
# T7 sequence (P25103 whole entry): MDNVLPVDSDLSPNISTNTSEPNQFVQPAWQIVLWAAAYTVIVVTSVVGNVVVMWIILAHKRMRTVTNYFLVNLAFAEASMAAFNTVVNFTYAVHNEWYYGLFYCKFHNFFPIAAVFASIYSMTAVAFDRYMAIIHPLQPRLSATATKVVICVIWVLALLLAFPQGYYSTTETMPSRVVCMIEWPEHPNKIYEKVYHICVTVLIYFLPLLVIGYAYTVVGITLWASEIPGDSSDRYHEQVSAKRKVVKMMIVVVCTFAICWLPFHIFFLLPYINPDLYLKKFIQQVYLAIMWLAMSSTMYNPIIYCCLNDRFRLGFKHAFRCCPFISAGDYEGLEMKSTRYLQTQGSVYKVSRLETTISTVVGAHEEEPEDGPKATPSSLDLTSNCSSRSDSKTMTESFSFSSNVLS
# T6 sequence (P41146 whole entry): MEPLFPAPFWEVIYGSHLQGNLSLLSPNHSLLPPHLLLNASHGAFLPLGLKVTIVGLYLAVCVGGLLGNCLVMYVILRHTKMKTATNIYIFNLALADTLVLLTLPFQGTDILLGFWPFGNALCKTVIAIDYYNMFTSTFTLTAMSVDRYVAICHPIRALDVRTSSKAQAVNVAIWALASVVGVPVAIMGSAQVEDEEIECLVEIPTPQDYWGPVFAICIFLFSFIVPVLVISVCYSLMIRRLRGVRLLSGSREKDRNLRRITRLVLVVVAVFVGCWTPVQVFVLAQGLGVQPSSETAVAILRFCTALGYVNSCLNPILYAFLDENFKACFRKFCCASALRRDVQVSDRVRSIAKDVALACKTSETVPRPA
# T8 sequence (P33032 whole entry): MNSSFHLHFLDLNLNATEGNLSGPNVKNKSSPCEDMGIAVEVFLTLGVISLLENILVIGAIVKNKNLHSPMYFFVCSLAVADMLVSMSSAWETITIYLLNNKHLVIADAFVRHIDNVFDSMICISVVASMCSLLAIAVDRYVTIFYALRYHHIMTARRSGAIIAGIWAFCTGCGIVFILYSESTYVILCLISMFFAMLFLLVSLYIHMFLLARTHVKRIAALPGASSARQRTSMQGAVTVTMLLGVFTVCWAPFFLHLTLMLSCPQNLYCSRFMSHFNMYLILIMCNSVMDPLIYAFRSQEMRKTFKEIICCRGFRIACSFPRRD
# T5 sequence (P41968 whole entry): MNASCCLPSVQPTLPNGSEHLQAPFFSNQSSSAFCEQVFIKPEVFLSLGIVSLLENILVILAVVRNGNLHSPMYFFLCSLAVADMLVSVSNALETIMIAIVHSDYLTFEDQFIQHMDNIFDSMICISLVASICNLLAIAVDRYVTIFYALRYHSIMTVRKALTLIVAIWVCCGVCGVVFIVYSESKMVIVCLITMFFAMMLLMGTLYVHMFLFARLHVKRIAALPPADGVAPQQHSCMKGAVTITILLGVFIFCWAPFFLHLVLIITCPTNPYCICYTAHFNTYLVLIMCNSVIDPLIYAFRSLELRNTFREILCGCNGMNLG
# T2 sequence (P35372 whole entry): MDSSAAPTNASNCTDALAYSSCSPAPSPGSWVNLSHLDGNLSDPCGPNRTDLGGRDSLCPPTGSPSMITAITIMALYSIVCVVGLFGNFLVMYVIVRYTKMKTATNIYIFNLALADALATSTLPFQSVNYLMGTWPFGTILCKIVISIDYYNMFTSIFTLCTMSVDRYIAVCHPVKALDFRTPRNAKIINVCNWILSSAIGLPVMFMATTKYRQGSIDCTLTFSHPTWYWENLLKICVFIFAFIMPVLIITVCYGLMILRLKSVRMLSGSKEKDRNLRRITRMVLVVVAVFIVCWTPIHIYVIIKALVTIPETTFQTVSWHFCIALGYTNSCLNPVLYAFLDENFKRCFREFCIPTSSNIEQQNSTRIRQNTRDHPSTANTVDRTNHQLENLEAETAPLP
# T10 sequence (Q99705 whole entry): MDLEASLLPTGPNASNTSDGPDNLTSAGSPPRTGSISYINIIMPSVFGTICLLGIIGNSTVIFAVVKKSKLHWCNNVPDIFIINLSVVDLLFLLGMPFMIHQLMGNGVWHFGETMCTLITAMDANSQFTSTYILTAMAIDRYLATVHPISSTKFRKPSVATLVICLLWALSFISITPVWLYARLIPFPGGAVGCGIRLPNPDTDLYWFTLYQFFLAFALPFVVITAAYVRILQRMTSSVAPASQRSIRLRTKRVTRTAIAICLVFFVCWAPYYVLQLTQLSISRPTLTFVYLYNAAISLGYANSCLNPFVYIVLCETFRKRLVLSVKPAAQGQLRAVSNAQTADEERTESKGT
# T1 sequence (P41143 whole entry): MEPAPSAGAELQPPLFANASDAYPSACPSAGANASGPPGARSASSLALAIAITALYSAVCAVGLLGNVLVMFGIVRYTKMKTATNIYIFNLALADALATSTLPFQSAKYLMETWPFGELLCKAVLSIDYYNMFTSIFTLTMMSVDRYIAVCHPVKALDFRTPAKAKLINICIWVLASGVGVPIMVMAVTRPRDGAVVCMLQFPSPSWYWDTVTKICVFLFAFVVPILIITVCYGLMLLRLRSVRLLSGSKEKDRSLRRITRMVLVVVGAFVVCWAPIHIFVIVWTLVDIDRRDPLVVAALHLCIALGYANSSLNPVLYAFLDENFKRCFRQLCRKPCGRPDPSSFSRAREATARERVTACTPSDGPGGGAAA
# T4 sequence (P32245 whole entry): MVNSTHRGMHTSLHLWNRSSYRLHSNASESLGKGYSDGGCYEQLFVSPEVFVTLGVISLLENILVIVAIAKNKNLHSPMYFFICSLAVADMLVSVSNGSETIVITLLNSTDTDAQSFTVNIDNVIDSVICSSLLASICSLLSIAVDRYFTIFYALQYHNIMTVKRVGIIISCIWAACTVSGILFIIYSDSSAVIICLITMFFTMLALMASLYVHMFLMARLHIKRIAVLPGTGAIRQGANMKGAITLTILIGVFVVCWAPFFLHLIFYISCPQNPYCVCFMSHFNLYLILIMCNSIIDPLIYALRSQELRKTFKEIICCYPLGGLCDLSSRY
smiles,measurement,setting,value
NCCCC(=O)NC1C(OCc2ccccc2)OC(COCc2ccccc2)C(O)C1OCc1ccc(Cl)cc1 (stereo not shown) [compound 373],"A1: inhibition of radioligand binding, human δ-opioid (DOP)",[1]; [3H]-Bremazocine,− (“−” indicates less than 50% inhibition at 10 μM)
same,"A7: inhibition of radioligand binding, human μ-opioid (MOP)",[2]; [3H]-Naloxone,− (“−” indicates less than 50% inhibition at 10 μM)
same,"A2: inhibition of radioligand binding, human κ-opioid (KOP)",[3]; [3H]-Diprenorphine,− (“−” indicates less than 50% inhibition at 10 μM)
same,"A4: inhibition of radioligand binding, human melanocortin (MC4)",[4]; [125I]-NDP-αMSH,+ (“+” indicates greater than 50% inhibition at 10 μM)
same,"A3: inhibition of radioligand binding, human melanocortin (MC3)",[5]; [125I]-NDP-αMSH,− (“−” indicates less than 50% inhibition at 10 μM)
same,"A10: inhibition of radioligand binding, human opioid (ORL1)",[6]; [125I]-Nociceptin,− (“−” indicates less than 50% inhibition at 10 μM)
same,"A8: inhibition of radioligand binding, human neurokinin (NK1)",[7]; [125I]-Substance P,+ (“+” indicates greater than 50% inhibition at 10 μM)
same,"A5: inhibition of radioligand binding, human melanocortin (MC5)",[8]; [125I]-NDP-αMSH,+ (“+” indicates greater than 50% inhibition at 10 μM)
same,"A9: inhibition of radioligand binding, human neuropeptide Y (NPY-Y1)",[9]; [125I]-PYY,− (“−” indicates less than 50% inhibition at 10 μM)
same,"A6: inhibition of radioligand binding, human melanin-concentrating hormone (MCH1)",[10]; [125I]-S36057,− (“−” indicates less than 50% inhibition at 10 μM)
same,"A11: inhibition of radioligand binding, mouse urotensin (mUR2)",[11]; [125I]-Urotensin II,− (“−” indicates less than 50% inhibition at 10 μM)
"NCCCC(=O)NC1C(OCc2ccc3ccccc3c2)OC(COCc2ccc3ccccc3c2)C(O)C1OCc1ccccc1 (single isomer, unassigned) [compound 466]",A1: inhibition of radioligand binding,"[1]; [3H]-Bremazocine, human DOP membranes",− (“−” indicates less than 50% inhibition at 10 μM)
same,A7: inhibition of radioligand binding,"[2]; [3H]-Naloxone, human MOP membranes",− (“−” indicates less than 50% inhibition at 10 μM)
same,A2: inhibition of radioligand binding,"[3]; [3H]-Diprenorphine, human KOP membranes",− (“−” indicates less than 50% inhibition at 10 μM)
same,A4: inhibition of radioligand binding,"[4]; [125I]-NDP-αMSH, human MC4 membranes, 10 µM",+ (“+” indicates greater than 50% inhibition at 10 μM)
same,A3: inhibition of radioligand binding,"[5]; [125I]-NDP-αMSH, human MC3 membranes, 10 µM",− (“−” indicates less than 50% inhibition at 10 μM)
same,A10: inhibition of radioligand binding,"[6]; [125I]-Nociceptin, human ORL1 membranes, 10 µM",+ (“+” indicates greater than 50% inhibition at 10 μM)
same,A8: inhibition of radioligand binding,"[7]; [125I]-Substance P, human NK1 membranes",+ (“+” indicates greater than 50% inhibition at 10 μM)
same,A5: inhibition of radioligand binding,"[8]; [125I]-NDP-αMSH, human MC5 membranes",+ (“+” indicates greater than 50% inhibition at 10 μM)
same,A9: inhibition of radioligand binding,"[9]; [125I]-PYY, human NPY-Y1 membranes",− (“−” indicates less than 50% inhibition at 10 μM)
same,A6: inhibition of radioligand binding,"[10]; [125I]-S36057, human MCH1 membranes, 10 µM",+ (“+” indicates greater than 50% inhibition at 10 μM)
same,A11: inhibition of radioligand binding,"[11]; [125I]-Urotensin II, mouse mUR2 membranes",− (“−” indicates less than 50% inhibition at 10 μM)
COC[C@H]1OC(OCc2ccc(-c3ccccc3)cc2)[C@H](NC(=O)CCCNC(=N)N)[C@@H](OCc2ccccc2)[C@@H]1O (stereo partly shown) [compound 8],A1 radioligand binding inhibition,[1]; human δ-opioid (DOP) membranes,− (“−” indicates less than 50% inhibition at 10 μM)
same,A7 radioligand binding inhibition,[2]; human μ-opioid (MOP) membranes,− (“−” indicates less than 50% inhibition at 10 μM)
same,A2 radioligand binding inhibition,[3]; human κ-opioid (KOP) membranes,− (“−” indicates less than 50% inhibition at 10 μM)
same,A4 radioligand binding inhibition,[4]; human melanocortin MC4 membranes,− (“−” indicates less than 50% inhibition at 10 μM)
same,A3 radioligand binding inhibition,[5]; human melanocortin MC3 membranes,− (“−” indicates less than 50% inhibition at 10 μM)
same,A10 radioligand binding inhibition,[6]; human ORL1 membranes,− (“−” indicates less than 50% inhibition at 10 μM)
same,A8 radioligand binding inhibition,[7]; human neurokinin NK1 membranes,+ (“+” indicates greater than 50% inhibition at 10 μM)
same,A5 radioligand binding inhibition,[8]; human melanocortin MC5 membranes,− (“−” indicates less than 50% inhibition at 10 μM)
same,A9 radioligand binding inhibition,[9]; human NPY-Y1 membranes,− (“−” indicates less than 50% inhibition at 10 μM)
same,A6 radioligand binding inhibition,"[10]; human MCH1 membranes, 10 µM",+ (“+” indicates greater than 50% inhibition at 10 μM)
same,A11 radioligand binding inhibition,[11]; mouse urotensin mUR2 membranes,− (“−” indicates less than 50% inhibition at 10 μM)
CO[C@H]1[C@H](O)[C@@H](COCc2ccc3ccccc3c2)OC(OCc2cccc(O)c2)[C@@H]1NC(=O)CCCN (stereo partly shown) [compound 167],"A1 radioligand binding, percentage inhibition",[1]; [3H]-Bremazocine,− (“−” indicates less than 50% inhibition at 10 μM)
same,"A7 radioligand binding, percentage inhibition",[2]; [3H]-Naloxone,− (“−” indicates less than 50% inhibition at 10 μM)
same,"A2 radioligand binding, percentage inhibition",[3]; [3H]-Diprenorphine,− (“−” indicates less than 50% inhibition at 10 μM)
same,"A4 radioligand binding, percentage inhibition",[4]; [125I]-NDP-αMSH,− (“−” indicates less than 50% inhibition at 10 μM)
same,"A3 radioligand binding, percentage inhibition",[5]; [125I]-NDP-αMSH,− (“−” indicates less than 50% inhibition at 10 μM)
same,"A10 radioligand binding, percentage inhibition",[6]; [125I]-Nociceptin,− (“−” indicates less than 50% inhibition at 10 μM)
same,"A8 radioligand binding, percentage inhibition",[7]; [125I]-Substance P,+ (“+” indicates greater than 50% inhibition at 10 μM)
same,"A5 radioligand binding, percentage inhibition",[8]; [125I]-NDP-αMSH,− (“−” indicates less than 50% inhibition at 10 μM)
same,"A9 radioligand binding, percentage inhibition",[9]; [125I]-PYY,− (“−” indicates less than 50% inhibition at 10 μM)
same,"A6 radioligand binding, percentage inhibition",[10]; [125I]-S36057,− (“−” indicates less than 50% inhibition at 10 μM)
same,"A11 radioligand binding, percentage inhibition",[11]; [125I]-Urotensin II,− (“−” indicates less than 50% inhibition at 10 μM)
COCC1OC(OCc2ccccc2)C(NC(=O)CN)C(OCc2ccc(Cl)cc2)C1O (stereo not shown) [compound 176],"A1 radioligand binding, percentage inhibition",[1]; [3H]-Bremazocine,− (“−” indicates less than 50% inhibition at 10 μM)
same,"A7 radioligand binding, percentage inhibition",[2]; [3H]-Naloxone,− (“−” indicates less than 50% inhibition at 10 μM)
same,"A2 radioligand binding, percentage inhibition",[3]; [3H]-Diprenorphine,− (“−” indicates less than 50% inhibition at 10 μM)
same,"A4 radioligand binding, percentage inhibition",[4]; [125I]-NDP-αMSH,− (“−” indicates less than 50% inhibition at 10 μM)
same,"A3 radioligand binding, percentage inhibition",[5]; [125I]-NDP-αMSH,− (“−” indicates less than 50% inhibition at 10 μM)
same,"A10 radioligand binding, percentage inhibition",[6]; [125I]-Nociceptin,− (“−” indicates less than 50% inhibition at 10 μM)
same,"A8 radioligand binding, percentage inhibition",[7]; [125I]-Substance P,+ (“+” indicates greater than 50% inhibition at 10 μM)
same,"A5 radioligand binding, percentage inhibition",[8]; [125I]-NDP-αMSH,− (“−” indicates less than 50% inhibition at 10 μM)
same,"A9 radioligand binding, percentage inhibition",[9]; [125I]-PYY,− (“−” indicates less than 50% inhibition at 10 μM)
same,"A6 radioligand binding, percentage inhibition",[10]; [125I]-S36057,− (“−” indicates less than 50% inhibition at 10 μM)
same,"A11 radioligand binding, percentage inhibition",[11]; [125I]-Urotensin II,− (“−” indicates less than 50% inhibition at 10 μM)
